Measurements reported in patent US9326931B2, “Use of porphyrin-type catalytic oxidation compounds as an anti-dandruff agent” (L'OREAL, priority 2012, dated 2016).

Assay: Test 1: Oxidation of 2,2,6,6-tetramethylpiperidine (TEMP), EPR detection of TEMPO
Details: porphyrin compound at 0.5 μM, 50 mM TEMP, phosphate buffer pH 7.4, oxygen-saturated, daylight, 1 hour
Method: The oxidizing agent used in this test is dissolved oxygen. A solution comprising a phosphate buffer (pH 7.4), 50 mM of the compound 2,2,6,6-tetramethylpiperidine (TEMP) and a porphyrin compound at 0.5 μM is prepared. The solution is saturated with oxygen. The solution is placed in daylight. After 1 hour, electron paramagnetic resonance (EPR) spectrometry of the oxidized form of the compound 2,2,6,6-tetramethylpiperidine (TEMP), which corresponds to the compound […], known as TEMPO, is performed. In accordance with the scientific publication Lion et al., 1976; Moan and Wold, 1979, the presence of the compound in TEMPO form is indicative of the oxidation produced by oxygen on the compound 2,2,6,6-tetramethylpiperidine and thus of the catalytic effect of the porphyrin compound. […] With a porphyrin compound according to the invention, the appearance of the TEMPO compound is observed after 1 hour of placing in contact.

Q: For copper chlorophyllin, which “catalytic oxidation activity: formation of the TEMPO compound from TEMP (test 1)” value is on record?
A: The value was “does not lead to the formation of the TEMPO compound”.
